Measured values taken from the supplement of paper PMC10307832.

Columns and labels:
Test in all cases: relative viability (nuclei count vs DMSO), 5 days (fraction); higher = more cells survive
Adavosertib + Bortezomib = compound: C=CCn1c(=O)c2cnc(Nc3ccc(N4CCN(C)CC4)cc3)nc2n1-c1cccc(C(C)(C)O)n1 [Adavosertib] + CC(C)C[C@H](NC(=O)[C@H](Cc1ccccc1)NC(=O)c1cnccn1)B(O)O [Bortezomib] (partner 0.002 µM)
How it was run: (§1)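 One day after seeding in 1536-well plates, lung cancer cell lines were dosed by pin tool. Dosing was either single-drug or a fixed anchor-drug dose plus five library-drug doses (not always all listed) in √10 steps. After 5 days, nuclei were stained in one fix-and-stain step and counted on 4× images, and relative viability is the nuclei count of treated wells over that of vehicle wells, given as the median of duplicate plates.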

Adavosertib + Lapatinib = compound: C=CCn1c(=O)c2cnc(Nc3ccc(N4CCN(C)CC4)cc3)nc2n1-c1cccc(C(C)(C)O)n1 [Adavosertib] + CS(=O)(=O)CCNCc1ccc(-c2ccc3ncnc(Nc4ccc(OCc5cccc(F)c5)c(Cl)c4)c3c2)o1 [Lapatinib] (partner 2 µM)
How it was run: as §1

Adavosertib + Linsitinib = compound: C=CCn1c(=O)c2cnc(Nc3ccc(N4CCN(C)CC4)cc3)nc2n1-c1cccc(C(C)(C)O)n1 [Adavosertib] + C[C@]1(O)C[C@@H](c2nc(-c3ccc4ccc(-c5ccccc5)nc4c3)c3c(N)nccn32)C1 [Linsitinib] (partner 1 µM)
How it was run: as §1

Adavosertib + Tozasertib = compound: C=CCn1c(=O)c2cnc(Nc3ccc(N4CCN(C)CC4)cc3)nc2n1-c1cccc(C(C)(C)O)n1 [Adavosertib] + Cc1cc(Nc2cc(N3CCN(C)CC3)nc(Sc3ccc(NC(=O)C4CC4)cc3)n2)n[nH]1 [Tozasertib] (partner 0.1 µM)
How it was run: as §1

Adavosertib + Olaparib = compound: C=CCn1c(=O)c2cnc(Nc3ccc(N4CCN(C)CC4)cc3)nc2n1-c1cccc(C(C)(C)O)n1 [Adavosertib] + O=C(c1cc(Cc2n[nH]c(=O)c3ccccc23)ccc1F)N1CCN(C(=O)C2CC2)CC1 [Olaparib] (partner 8 µM)
How it was run: as §1

NCI-H2085
relative viability (Adavosertib + Bortezomib; first compound 0.01 µM): 1.04 | relative viability (Adavosertib + Bortezomib; first compound 0.03162 µM): 1.05 | relative viability (Adavosertib + Bortezomib; first compound 0.1 µM): 1.05 | relative viability (Adavosertib + Bortezomib; first compound 0.3162 µM): 1.11 | relative viability (Adavosertib + Lapatinib; first compound 0.01 µM): 0.743 | relative viability (Adavosertib + Lapatinib; first compound 0.03162 µM): 0.813 | relative viability (Adavosertib + Lapatinib; first compound 0.1 µM): 0.86 | relative viability (Adavosertib + Lapatinib; first compound 0.3162 µM): 0.836 | relative viability (Adavosertib + Linsitinib; first compound 0.01 µM): 0.872 | relative viability (Adavosertib + Linsitinib; first compound 0.03162 µM): 0.996 | relative viability (Adavosertib + Linsitinib; first compound 0.1 µM): 0.988 | relative viability (Adavosertib + Linsitinib; first compound 0.3162 µM): 0.827 | relative viability (Adavosertib + Tozasertib; first compound 0.01 µM): 0.738 | relative viability (Adavosertib + Tozasertib; first compound 0.03162 µM): 0.788 | relative viability (Adavosertib + Tozasertib; first compound 0.1 µM): 0.956 | relative viability (Adavosertib + Tozasertib; first compound 0.3162 µM): 0.799 | relative viability (Adavosertib + Olaparib; first compound 0.01 µM): 0.831 | relative viability (Adavosertib + Olaparib; first compound 0.03162 µM): 0.753 | relative viability (Adavosertib + Olaparib; first compound 0.1 µM): 0.829 | relative viability (Adavosertib + Olaparib; first compound 0.3162 µM): 0.759

NCI-H1355
relative viability (Adavosertib + Bortezomib; first compound 0.01 µM): 1.15 | relative viability (Adavosertib + Bortezomib; first compound 0.03162 µM): 1.17 | relative viability (Adavosertib + Bortezomib; first compound 0.1 µM): 1.18 | relative viability (Adavosertib + Bortezomib; first compound 0.3162 µM): 1.16 | relative viability (Adavosertib + Lapatinib; first compound 0.01 µM): 0.955 | relative viability (Adavosertib + Lapatinib; first compound 0.03162 µM): 1.02 | relative viability (Adavosertib + Lapatinib; first compound 0.1 µM): 0.966 | relative viability (Adavosertib + Lapatinib; first compound 0.3162 µM): 0.948 | relative viability (Adavosertib + Linsitinib; first compound 0.01 µM): 0.892 | relative viability (Adavosertib + Linsitinib; first compound 0.03162 µM): 0.701 | relative viability (Adavosertib + Linsitinib; first compound 0.1 µM): 0.872 | relative viability (Adavosertib + Linsitinib; first compound 0.3162 µM): 0.808 | relative viability (Adavosertib + Tozasertib; first compound 0.01 µM): 0.549 | relative viability (Adavosertib + Tozasertib; first compound 0.03162 µM): 0.553 | relative viability (Adavosertib + Tozasertib; first compound 0.1 µM): 0.522 | relative viability (Adavosertib + Tozasertib; first compound 0.3162 µM): 0.615 | relative viability (Adavosertib + Olaparib; first compound 0.01 µM): 0.736 | relative viability (Adavosertib + Olaparib; first compound 0.03162 µM): 0.698 | relative viability (Adavosertib + Olaparib; first compound 0.1 µM): 0.757 | relative viability (Adavosertib + Olaparib; first compound 0.3162 µM): 0.685

NCI-H1755
relative viability (Adavosertib + Bortezomib; first compound 0.01 µM): 0.965 | relative viability (Adavosertib + Bortezomib; first compound 0.03162 µM): 0.905 | relative viability (Adavosertib + Bortezomib; first compound 0.1 µM): 1.01 | relative viability (Adavosertib + Bortezomib; first compound 0.3162 µM): 1.03 | relative viability (Adavosertib + Lapatinib; first compound 0.01 µM): 1.12 | relative viability (Adavosertib + Lapatinib; first compound 0.03162 µM): 1.02 | relative viability (Adavosertib + Lapatinib; first compound 0.1 µM): 1.04 | relative viability (Adavosertib + Lapatinib; first compound 0.3162 µM): 1.09 | relative viability (Adavosertib + Linsitinib; first compound 0.01 µM): 0.997 | relative viability (Adavosertib + Linsitinib; first compound 0.03162 µM): 0.956 | relative viability (Adavosertib + Linsitinib; first compound 0.1 µM): 0.992 | relative viability (Adavosertib + Linsitinib; first compound 0.3162 µM): 0.997 | relative viability (Adavosertib + Tozasertib; first compound 0.01 µM): 0.649 | relative viability (Adavosertib + Tozasertib; first compound 0.03162 µM): 0.581 | relative viability (Adavosertib + Tozasertib; first compound 0.1 µM): 0.682 | relative viability (Adavosertib + Tozasertib; first compound 0.3162 µM): 0.535 | relative viability (Adavosertib + Olaparib; first compound 0.01 µM): 0.87 | relative viability (Adavosertib + Olaparib; first compound 0.03162 µM): 0.936 | relative viability (Adavosertib + Olaparib; first compound 0.1 µM): 0.891 | relative viability (Adavosertib + Olaparib; first compound 0.3162 µM): 0.72

NCI-H650
relative viability (Adavosertib + Bortezomib; first compound 0.01 µM): 0.597 | relative viability (Adavosertib + Bortezomib; first compound 0.03162 µM): 0.795 | relative viability (Adavosertib + Bortezomib; first compound 0.1 µM): 1.07 | relative viability (Adavosertib + Bortezomib; first compound 0.3162 µM): 0.663 | relative viability (Adavosertib + Lapatinib; first compound 0.01 µM): 0.856 | relative viability (Adavosertib + Lapatinib; first compound 0.03162 µM): 1.28 | relative viability (Adavosertib + Lapatinib; first compound 0.1 µM): 1.1 | relative viability (Adavosertib + Lapatinib; first compound 0.3162 µM): 0.808 | relative viability (Adavosertib + Linsitinib; first compound 0.01 µM): 0.785 | relative viability (Adavosertib + Linsitinib; first compound 0.03162 µM): 0.926 | relative viability (Adavosertib + Linsitinib; first compound 0.1 µM): 0.87 | relative viability (Adavosertib + Linsitinib; first compound 0.3162 µM): 0.712 | relative viability (Adavosertib + Tozasertib; first compound 0.01 µM): 0.75 | relative viability (Adavosertib + Tozasertib; first compound 0.03162 µM): 0.774 | relative viability (Adavosertib + Tozasertib; first compound 0.1 µM): 0.806 | relative viability (Adavosertib + Tozasertib; first compound 0.3162 µM): 0.757 | relative viability (Adavosertib + Olaparib; first compound 0.01 µM): 0.397 | relative viability (Adavosertib + Olaparib; first compound 0.03162 µM): 0.412 | relative viability (Adavosertib + Olaparib; first compound 0.1 µM): 0.397 | relative viability (Adavosertib + Olaparib; first compound 0.3162 µM): 0.207
